These results are taken from patent US8110585B2, “Bicyclic compound and pharmaceutical use thereof” (Takeda Pharmaceutical Company Limited, priority 2007, dated 2012).

For `Cc1cc2c([C@@H]3C[C@H]3CNC(=O)OC(C)(C)C)cccn2n1` (relative stereo) [Example 40, trans-tert-butyl{[2-(2-methylpyrazolo[1,5-a]pyridin-4-yl)cyclopropyl]methyl}carbamate], the melting point (in general, the temperature of the solid-liquid transition) lay within 105 to 107 °C.
Then `Cc1cc2c([C@H]3C[C@@H]3CNC(=O)OC(C)(C)C)cccn2n1` [Example 41, tert-butyl{[(1S,2S)-2-(2-methylpyrazolo[1,5-a]pyridin-4-yl)cyclopropyl]methyl}carbamate], with 117 to 118 °C; and `Cn1cc2c([C@@H]3C[C@H]3CNC(=O)c3ccc(Br)cc3)cccc2n1` [Example 15, 4-bromo-N-{[(1R,2R)-2-(2-methyl-2H-indazol-4-yl)cyclopropyl]methyl}benzamide], with 140 to 142 °C.
For the compound `Cn1cc2c([C@@H]3C[C@H]3CNC(=O)OC(C)(C)C)cccc2n1` (relative stereo) [Example 7, trans-tert-butyl{[2-(2-methyl-2H-indazol-4-yl)cyclopropyl]methyl}carbamate], the melting point lay within 120 to 121 °C.
In turn, `CCC(=O)NCC1CC1c1cccc2nc(C(F)(F)F)cn12` (stereo not shown) [Example 55, N-({2-[2-(trifluoromethyl)imidazo[1,2-a]pyridin-5-yl]cyclopropyl}methyl)propanamide] displayed a melting point of 148 to 151 °C.
Then `CC(=O)NCC1CC1c1cccc2nc(C(F)(F)F)cn12` (stereo not shown) [Example 54, N-({2-[2-(trifluoromethyl)imidazo[1,2-a]pyridin-5-yl]cyclopropyl}methyl)acetamide], with 135 to 137 °C; and `Cc1cc2c([C@@H]3C[C@H]3CNC(=O)c3ccccc3)cccn2n1` (relative stereo) [Example 50, trans-N-{[2-(2-methylpyrazolo[1,5-a]pyridin-4-yl)cyclopropyl]methyl}benzamide], with 112 to 113 °C.
As for `Cn1cc2c([C@@H]3C[C@H]3CNC(=O)OC(C)(C)C)cccc2n1` [Example 9, tert-butyl{[(1R,2R)-2-(2-methyl-2H-indazol-4-yl)cyclopropyl]methyl}carbamate], the figure is 140 to 142 °C; as for `Cc1cc2c([C@@H]3C[C@H]3CNC(=O)OC(C)(C)C)cccn2n1` [Example 42, tert-butyl{[(1R,2R)-2-(2-methylpyrazolo[1,5-a]pyridin-4-yl)cyclopropyl]methyl}carbamate], 118 to 119 °C.
Then `Cn1cc2c([C@H]3C[C@@H]3CNC(=O)OC(C)(C)C)cccc2n1` [Example 8, tert-butyl{[(1S,2S)-2-(2-methyl-2H-indazol-4-yl)cyclopropyl]methyl}carbamate], with 141 to 142 °C.
